Read-outs that look alike come from different tables or passages of the source.
Tests used:
[1] = Lipophilicity: octanol-water partition coefficient, shake-flask method
Procedure: The octanol-water partition coefficients (P) of all the complexes were determined using a shake-flask method^8. Water (100 mL, distilled after milli-Q purification) and n-octanol (100 mL, Sigma Aldrich, ACS spectrophotometric grade, ≥99%) were shaken together for 24 h to allow saturation of both phases. Stock solutions of the compounds ([…]) were prepared in the aqueous phase. Aliquots (2 mL) of each of these stock solutions were then added to an equal volume of the n-octanol phase. The resultant biphasic solution was mixed for 15 min and then centrifuged (3000 tr/min, 5 min) to separate the phases. The concentrations of the complex in the organic and aqueous phases were then determined using UV absorbance spectroscopy (260 nm). The blank is the water saturated with n-octanol. Log P was defined as logarithm of the ratio of the concentrations of the complex in the organic and aqueous phases (values reported are the means of at least three separated determinations).
The Log P values have been determined by a classical shake-flask method.

[2] = UV/Vis absorption spectra; format: physicochemical; settings: room temperature; for maximum absorption, lowest-lying bands in the visible region over 360 nm: CH2Cl2 or CH2Cl2/MeOH (1:1); for λmax (nm) ε (M^−1 · cm^−1): air-saturated CH2Cl2 or CH2Cl2/MeOH (1:1), 50 μM, ε in brackets, sh = shoulder
Procedure: UV/Vis absorption spectra were recorded at RT on solutions contained in quartz cuvettes (optical pathlength 1 cm, Hellma®) with a PerkinElmer® UV/VIS/NIR spectrophotometer Lambda 950 and a PerkinElmer® detector UV/VIS/NIR Accessory 2D Detector Module.

[3] = Luminescence emission spectra and quantum yield; format: physicochemical; settings: for ΦP emission phosphorescence quantum yield: room temperature, reference POPOP in hexane or rhodamine B in ethanol; for λem: CH2Cl2, room temperature, λexc 365 nm or 470 nm
Procedure: Fluorescence and phosphorescence emission spectra were obtained with a HORIBA JOBIN YVON, fluromax-4 and spectrofluorometer.
Luminescence quantum yields were measured according to the method of Demas and Crosby, on solution samples at RT. The quantum yield is defined as: […]
Where ΦP is the quantum yield of the sample, ΦR is the know quantum yield of the reference standard. […].
The luminescence spectra of vectorized iridium(III) complexes were determined in CH2Cl2 at room temperature (Table 3).

[4] = Emission lifetime measurement; format: physicochemical
Procedure: Fluorescence lifetime measurements were performed by an Edinburgh FLS920 spectrofluorimeter equipped with a TCC900 card for data acquisition in time-correlated single-photon counting experiments (0.5 ns time resolution) with a D2 lamp and an LDH—P-C-405 pulsed diode laser. The estimated experimental error is 2 nm on the band maximum (5% on the lifetime, 10% on the fluorescence quantum yield).
The emission lifetimes of biotin-vectorized complexes (I-a) to (I-l) range from 138 ns to 411 ns, among them, the lifetime of biotin-vectorized complexes (I-c), (I-e), (I-k) are 411, 224, and 322 ns respectively. The emission lifetimes of FTS-vectorized complexes (II-a) to (II-l) range from 167 ns to 486 ns, among them, the lifetime of FTS-vectorized complexes (II-c) and (II-k) are 319 and 486 ns respectively. The emission lifetimes of PSMA-vectorized complexes (III-a) to (III-l) are in the range of 159-649 ns, among them, the lifetime of complexes (III-a) and (III-k) were 248 and 649 ns, respectively. The emission lifetimes of Fc-vectorized complexes (IV-a) to (IV-l) are in the range of 178-228 ns.

[5] = test system: NIH-3T3 fibroblast cells (non-tumor); test: Cell viability assay (MTT), dark and blue light; format: cell-based, Murine; settings: for GI50: read-out: GI50; for Photosensitizing index (PI): NIH-3T3, dark vs blue light
Procedure: Cells were grown in humidified incubators at 37° C. in 5% CO2. Murine MC3T3 osteoblast and NIH-3T3 fibroblast cells-used as non-tumor cell models-were cultured in a-MEM medium and DMEM medium supplemented with 10% fetal bovine serum (FBS) and 1% Penicillin/Streptomycin (P/S) antibiotics, respectively. Human T24 bladder, MGHU3 bladder, Scaber bladder, A549 lung, MCF7 breast, MiaPaCa2 pancreas cancer cells were cultured in DMEM medium supplemented with 10% FBS and 1% P/S antibiotics. […] Human Hela cervix and HepG2 liver cancer cells were cultured EMEM medium supplemented with 10% FBS and 1% P/S antibiotics.
(§1) MTT reagent (3-(4,5-dimethylthiazol-2-yl)-2,5-diphenyltetrazolium bromide) was used to determine cell death as originally described by Mosmann. Briefly, cells were seeded from 5,000 to 10,000 cells/well in 24-well plates (1 mL) depending on the cell type and allowed to attach overnight. The complexes were prepared in DMSO. The concentration of the complexes was calculated based on the elemental composition of the complexes determined by the elemental analyses. All cell viability experiments were carried out with a fixed concentration of 0.1% (v/v) DMSO. After 72 h of treatment, cells were incubated at 37° C. and 5% CO2 with 25 μL of MTT solution (5 mg/ml; Sigma-Aldrich) in 24-well plates for 3 to 4 h. After solubilization with 500 μL of DMSO, formazan was quantified spectrophotometrically with a microplate reader at 570 nm absorbance (ClarioSTAR, BMG LabTech). […] All the results were calculated from data obtained in at least three independent experiments performed in triplicate.
(§2) Two sets of experiments were conducted in parallel for each complex to be studied:
(§3) 1. The cells were incubated with the different complexes (in the dark) for 72 h.
(§4) 2. The cells were incubated for 8 h with the different complexes (in the dark), then irradiated for 10 min, followed by an incubation in the dark up to 72 h.

[6] = test system: PC-3 prostate cancer cells (PSMA-negative); test: Cell viability assay (MTT), dark and blue light; format: cell-based, Human; settings: for Photosensitizing index (PI): PC3, dark vs blue light; for GI50: read-out: GI50
Procedure: Cells were grown in humidified incubators at 37° C. in 5% CO2. Murine MC3T3 osteoblast and NIH-3T3 fibroblast cells-used as non-tumor cell models-were cultured in a-MEM medium and DMEM medium supplemented with 10% fetal bovine serum (FBS) and 1% Penicillin/Streptomycin (P/S) antibiotics, respectively. Human T24 bladder, MGHU3 bladder, Scaber bladder, A549 lung, MCF7 breast, MiaPaCa2 pancreas cancer cells were cultured in DMEM medium supplemented with 10% FBS and 1% P/S antibiotics. Human ASPC-1 pancreas, PC-3 prostate, DU-145 prostate, C4-2B prostate and 22rV1 prostate cancer cells were cultured in RPMI medium supplemented with 10% FBS and 1% P/S antibiotics. Human Hela cervix and HepG2 liver cancer cells were cultured EMEM medium supplemented with 10% FBS and 1% P/S antibiotics.
as §1
Irradiation was conducted using an in-house device, a series of blue light LEDs selected according to the absorption spectra of the compounds at 458 nm wavelength with an emitted power of 9.6 Watts. The light fluence was measured at 458 nm with an optical power meter Thorlabs PM100A at different distances between the cell layer and the light source (5 and 10 cm).
as §2, §3, §4

[7] = n-octanol/water, shake-flask, mean of at least three determinations

Cc1ccc2[c](c1)[Ir-3]13([c]4cc(C)ccc4-c4cccc[n+]41)([c]1n(CCCNC(=O)[c-]4cccc4)cc[n+]1-c1cccc[n+]13)[n+]1ccccc1-2.F[P-](F)(F)(F)(F)F.[Fe+2].c1cc[cH-]c1 [IV-b]
Log P [1, 7]: 1.63 ± 0.02
maximum absorption, lowest-lying bands in the visible region over 360 nm [2]: around 380 nm
λmax (nm) ε (M^−1 · cm^−1) [2]: 308 (sh) (27820), 379 (8620) nm (M^−1 · cm^−1)
ΦP emission phosphorescence quantum yield [3]: 0.03%
τ1 emission lifetime [4]: 197 ns
GI50 ([5]; NIH-3T3, blue light): 13.2 µM
Photosensitizing index (PI) [5]: 1.1
GI50 ([5]; NIH-3T3, dark): 13.9 µM
SI (vs NIH-3T3) ([6]; PC3, dark): 16.4
Photosensitizing index (PI) [6]: 2.2
GI50 ([6]; PC3, dark): 0.85 µM
SI (vs NIH-3T3) PC-3 Blue ([6]; blue light 458 nm): 33.8

F[P-](F)(F)(F)(F)F.O=C(CCCC[C@@H]1SC[C@@H]2NC(=O)N[C@@H]21)NCCCn1cc[n+]2[c]1[Ir-3]13([c]4ccccc4-c4ccc(C(=O)O)c[n+]41)([c]1ccccc1-c1ccc(C(=O)O)c[n+]13)[n+]1ccccc1-2 [I-f]
Log P [1, 7]: −0.68 ± 0.07

COC(=O)c1cccc2[c]1[Ir-3]13([c]4c(C(=O)OC)cccc4-c4cccc[n+]41)([c]1n(CCCNC(=O)c4ccccc4SC/C=C(\C)CC/C=C(\C)CCC=C(C)C)cc[n+]1-c1cccc[n+]13)[n+]1ccccc1-2.F[P-](F)(F)(F)(F)F [II-d]
Log P [1]: 1.40 ± 0.02
maximum absorption, lowest-lying bands in the visible region over 360 nm [2]: around 370 nm
λmax (nm) ε (M^−1 · cm^−1) [2]: 372 (4535) nm (M^−1 · cm^−1)
ΦP emission phosphorescence quantum yield [3]: 0.9%
τ1 emission lifetime [4]: 201 ns

COC(=O)c1ccc2[c](c1)[Ir-3]13([c]4cc(C(=O)OC)ccc4-c4cccc[n+]41)([c]1n(CCCNC(=O)c4ccccc4SC/C=C(\C)CC/C=C(\C)CCC=C(C)C)cc[n+]1-c1cccc[n+]13)[n+]1ccccc1-2.F[P-](F)(F)(F)(F)F [II-c]
Log P [1]: 1.08 ± 0.01
λmax (nm) ε (M^−1 · cm^−1) [2]: 310 (sh) (21710), 355 (5105), 398 (3925) nm (M^−1 · cm^−1)
ΦP emission phosphorescence quantum yield [3]: 4.6%
τ1 emission lifetime [4]: 319 ns

CC(C)=CCC/C(C)=C/CC/C(C)=C/CSc1ccccc1C(=O)NCCCn1cc[n+]2[c]1[Ir-3]13([c]4ccccc4-c4cccc[n+]41)([c]1ccccc1-c1cccc[n+]13)[n+]1ccccc1-2.F[P-](F)(F)(F)(F)F [II-a]
Log P [1]: 1.70 ± 0.08
maximum absorption, lowest-lying bands in the visible region over 360 nm [2]: around 380 nm
λmax (nm) ε (M^−1 · cm^−1) [2]: 308 (sh) (14540), 380 (4505) nm (M^−1 · cm^−1)
ΦP emission phosphorescence quantum yield [3]: 0.5%
τ1 emission lifetime [4]: 210 ns

COC(=O)c1ccc2[n+](c1)[Ir-3]13([c]4ccccc4-2)([c]2ccccc2-c2ccc(C(=O)OC)c[n+]21)[c]1n(CCCNC(=O)[c-]2cccc2)cc[n+]1-c1cccc[n+]13.F[P-](F)(F)(F)(F)F.[Fe+2].c1cc[cH-]c1 [IV-e]
Log P [1]: 1.37 ± 0.05
λmax (nm) ε (M^−1 · cm^−1) [2]: 312 (sh) (27925), 363 (sh) (7290), 434 (6530) nm (M^−1 · cm^−1)
λem [3]: 528 nm
ΦP emission phosphorescence quantum yield [3]: 0.17%
τ1 emission lifetime [4]: 200 ns
GI50 ([5]; NIH-3T3, blue light): 4.2 µM
Photosensitizing index (PI) [5]: 7.7
GI50 ([5]; NIH-3T3, dark): 32.3 µM
GI50 ([6]; PC3, blue light): 0.54 µM
Photosensitizing index (PI) [6]: 18.3
GI50 ([6]; PC3, dark): 9.9 µM

F[P-](F)(F)(F)(F)F.O=C(O)c1ccc2[n+](c1)[Ir-3]13([c]4ccccc4-2)([c]2ccccc2-c2ccc(C(=O)O)c[n+]21)[c]1n(CCCNC(=O)[c-]2cccc2)cc[n+]1-c1cccc[n+]13.[Fe+2].c1cc[cH-]c1 [IV-f]
Log P [1, 7]: 1.08 ± 0.03
λmax (nm) ε (M^−1 · cm^−1) [2]: 304 (sh) (22560), 410 (4150) nm (M^−1 · cm^−1)
ΦP emission phosphorescence quantum yield [3]: 0.12%
τ1 emission lifetime [4]: 202 ns

COC(=O)c1ccc2[c](c1)[Ir-3]13([c]4cc(C(=O)OC)ccc4-c4cccc[n+]41)([c]1n(CCCNC(=O)[c-]4cccc4)cc[n+]1-c1cccc[n+]13)[n+]1ccccc1-2.F[P-](F)(F)(F)(F)F.[Fe+2].c1cc[cH-]c1 [IV-c]
Log P [1]: 0.72 ± 0.03
λmax (nm) ε (M^−1 · cm^−1) [2]: 304 (sh) (28570), 353 (sh) (7050), 399 (5315), 427 (sh) (3660) nm (M^−1 · cm^−1)
ΦP emission phosphorescence quantum yield [3]: 0.04%
τ1 emission lifetime [4]: 195 ns
GI50 ([5]; NIH-3T3, blue light): 9.3 µM
Photosensitizing index (PI) [5]: 3.5
SI (vs NIH-3T3) ([6]; PC3, blue light): 10.7
SI (vs NIH-3T3) ([6]; PC3, dark): 2.2
Photosensitizing index (PI) [6]: 16.8

F[P-](F)(F)(F)(F)F.O=C(NCCCn1cc[n+]2[c]1[Ir-3]13([c]4ccccc4-c4ccc5ccccc5[n+]41)([c]1ccccc1-c1ccc4ccccc4[n+]13)[n+]1ccccc1-2)[c-]1cccc1.[Fe+2].c1cc[cH-]c1 [IV-g]
Log P [1]: 1.42 ± 0.06
λmax (nm) ε (M^−1 · cm^−1) [2]: 334 (17135), 436 (4150) nm (M^−1 · cm^−1)
λem [3]: 579 nm
ΦP emission phosphorescence quantum yield [3]: 0.02%
τ1 emission lifetime [4]: 214 ns
Photosensitizing index (PI) [5]: 3.3
GI50 ([5]; NIH-3T3, dark): 11.8 µM
SI (vs NIH-3T3) ([6]; PC3, blue light): 13.7
SI (vs NIH-3T3) ([6]; PC3, dark): 7.9
Photosensitizing index (PI) [6]: 5.8
GI50 ([6]; PC3, dark): 1.5 µM

CC(C)=CCC/C(C)=C/CC/C(C)=C/CSc1ccccc1C(=O)NCCCn1cc[n+]2[c]1[Ir-3]13([c]4cc(C)ccc4-c4cccc[n+]41)([c]1cc(C)ccc1-c1cccc[n+]13)[n+]1ccccc1-2.F[P-](F)(F)(F)(F)F [II-b]
Log P [1]: 1.68 ± 0.02
maximum absorption, lowest-lying bands in the visible region over 360 nm [2]: around 380 nm
λmax (nm) ε (M^−1 · cm^−1) [2]: 306 (sh) (15875), 382 (4560) nm (M^−1 · cm^−1)
ΦP emission phosphorescence quantum yield [3]: 0.4%
τ1 emission lifetime [4]: 167 ns

— patent publication US20260209260A1, “VECTORIZED NHC IRIDIUM(III) COMPLEXES AND USE THEREOF IN PHOTODYNAMIC THERAPY AND/OR DIAGNOSTIC” (CENTRE NATIONAL DE LA RECHERCHE SCIENTIFIQUE, priority 2022, published 2026)
